# Assays:
# [1] = Non-Patent Literature 10; cited from earlier work
# RNR = target: T1, RNR (Homo sapiens, UniProt P31350); settings: Non-Patent Literature 7; cited from earlier work
# T1 sequence (P31350 1-389): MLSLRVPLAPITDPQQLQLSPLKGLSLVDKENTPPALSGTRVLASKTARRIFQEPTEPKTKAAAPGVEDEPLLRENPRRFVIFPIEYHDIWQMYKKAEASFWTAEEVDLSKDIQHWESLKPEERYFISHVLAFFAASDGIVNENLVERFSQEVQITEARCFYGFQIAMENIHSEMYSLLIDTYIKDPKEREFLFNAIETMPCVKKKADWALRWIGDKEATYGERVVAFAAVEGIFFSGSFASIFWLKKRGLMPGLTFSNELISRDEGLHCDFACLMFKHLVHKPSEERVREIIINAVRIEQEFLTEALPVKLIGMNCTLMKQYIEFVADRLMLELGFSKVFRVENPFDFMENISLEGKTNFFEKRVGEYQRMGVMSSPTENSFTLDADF
# [2] = test system: MC38 mouse colon cancer cells; experiment: Antitumor effect in MC38 colon cancer cell-transplanted mouse models (tumor volume); assay type: in vivo; settings: for T/C (%): Day 15; for TV on Day 15 (mm^3, mean ± SE): MC38 s.c. in C57BL/6NCrl mice, n=10
# Method: The mouse colon cancer cell strain MC38 was obtained from Dr. Yoshihiro Hayakawa (University of Toyama, Toyama, Japan). The MC38 cell strain was subjected to culture in an RPMI 1640 medium containing 10% fetal bovine serum and then to subculture in an incubator at 37° C. in the presence of 5% CO2 at a frequency of once or twice a week.
# The MC38 cell suspension was transplanted subcutaneously at 1×10^6 cells/0.1 ml to the right chest of 6-week-old C57BL/6NCrl mice (Charles River Laboratories Japan, Inc.).
# After transplantation, tumors were allowed to grow to reach the tumor volume (TV) of 50 to 300 mm^3. The longer diameter and the shorter diameter of the tumor were measured using a Digimatic caliper and the tumor volume (TV) was calculated in accordance with the following formula.
# The animals were divided into groups each consisting of 10 individuals by stratified random allocation using TV as the indicator. The day on which grouping (n=10) was performed was designated as Day 0.
# Tumor volume changes (T/C) were calculated based on TV on the final day of evaluation (Day 15).
# (§1) An aqueous solution of 0.5% Hypromellose was prepared by adding an adequate amount of an injection solvent (Japanese Pharmacopoeia) to and dissolving Hypromellose at a concentration of 0.5 w/v %. Compound 1, synthesized in accordance with the method disclosed in WO 2017/209155, was grounded in an agate mortar, suspended at a given concentration in the aqueous solution of 0.5% Hypromellose, and then ultrasonically treated to obtain a homogeneous suspension. The resulting suspension was orally administered as Compound 1 once a day for continuous 14 days at 25 mg/kg/day or 50 mg/kg/day. To the control group, the aqueous solution of 0.5% Hypromellose was orally administered once a day for continuous 14 days.
# (§2) As an anti-mouse PD-1 antibody (anti-mPD-1 Ab), CD279 (PD-1) Monoclonal Antibody (RMP1-14), eBioscience (Thermo Fisher Scientific) was diluted to a given concentration with PBS immediately before administration. On the first day of administration (Day 1), the anti-mouse PD-1 antibody was administered intraperitoneally at 0.05 mg/body.
# [3] = Body weight changes in MC38 colon cancer cell-transplanted mouse models; assay type: in vivo
# Method: Body weights were measured using an electronic balance for animals. Body weight changes (BWCn) on the n^th day were determined based on the body weight measured on the n^th day (BWn) in accordance with the following formula.
# as §1, §2
# [4] = Compound 1 25 mg/kg/day p.o. days 1-14
# [5] = Compound 1 50 mg/kg/day p.o. days 1-14
compound,measurement,setting,value
"NC(=S)NN=Cc1ncccc1N [Compound 3-AP, 3-aminopyridine-2-carboxaldehyde thiosemicarbazone]",Side effects caused in clinical cases,[1],"hypoxia, dyspnea, methemoglobinemia"
"NC(=O)NO [HU, hydroxyurea]",RNR inhibitory activity,RNR,very weak
"Cc1ccc(F)c([C@@H](C)[C@H](NS(=O)(=O)c2ccc(Cl)cc2C(N)=O)c2n[nH]c(=O)o2)c1C [Compound 1, 5-Chloro-2-(N-((1S,2R)-2-(6-fluoro-2,3-dimethylphenyl)-1-(5-oxo-4,5-dihydro-1,3,4-oxadiazol-2-yl)propyl)sulfamoyl)benzamide]",T/C (%),[2]; [4],91.9%
same,"TV on Day 15 (mm^3, mean ± SE)",[2]; [4],868 ± 182 mm^3
same,T/C (%),[2]; [5],29.7%
same,"TV on Day 15 (mm^3, mean ± SE)",[2]; [5],306 ± 79 mm^3
same,TV on Day 15 compared with the control group (Dunnett's test),[2]; Compound 1 at 50 mg/kg/day alone,significantly lower
same,"BWC on Day 15 (%, mean ± SE)",[3]; [4],4.0 ± 0.7%
same,"BWC on Day 15 (%, mean ± SE)",[3]; [5],4.9 ± 1.0%
